Drawing on US11447504B2, “Macrocyclic chlorine substituted indole derivatives” (Bayer Aktiengesellschaft, priority 2017, dated 2022), this text covers ring closure, yield of all isomers, IC50 and EC50 for seven molecules.

For series [1] the following is noted: from CCOC(=O)c1[nH]c2c(-c3c(N(C)CCCCCO)nn(C)c3C)c(Cl)ccc2c1CCCOc1cccc2cc(F)ccc12, amine bond, di-tert-butyl azodicarboxylate/PPh3, THF, 15.7 mM, 64.0 h.
In series [2] the test system is SUDHL5. Kind of series: Antiproliferation assay 7, SUDHL5. The format is cell-based. To be noted: SUDHL5 cells, CellTiter-Glo, read-out: Antiproli SUDHL5 IC50 (median). An outline of the steps: (§1)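 Plate cells in treatment and day 0 reference plates; read day 0 plate with CellTiter-Glo after 10 min; incubate treated plates 72 h at 37° C; read them identically.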
The test system of a further series is MV-4-11. Kind of series: Antiproliferation assay 7, MV-4-11. The note with it: MV-4-11 cells, CellTiter-Glo, read-out: Antiproli MV-4-11 IC50 median. The class given is cell-based. An outline of the steps:
as §1

Another series relates to AMO-1. Kind of series: Antiproliferation assay 7, AMO-1. The note with it: AMO-1 cells, CellTiter-Glo, read-out: Antiproli AMO-1 IC50 median. The class given is cell-based. In outline: as §1
In another series the test system is HMC-1-8. Kind of series: Antiproliferation assay 7, HMC-1-8. The class given is cell-based. The note with it: HMC-1-8 cells, CellTiter-Glo, read-out: Antiproli HMC-1-8 IC50 median. In outline:
as §1

In another series the test system is SK-BR-3. Kind of series: Antiproliferation assay 7, SK-BR-3. The format is cell-based. The note with it: SK-BR-3 cells, 72 hours, CellTiter-Glo, read-out: Antiproli SK-BR-3 IC50 median. An outline of the steps:
as §1

In series [3] the test system is SUDHL5. Kind of series: Induction of cytotoxicity (Assay 6), SUDHL5.
Procedure: (§7) Assay 6 Induction of Cytotoxicity Upon Treatment of Cells with Selected Compounds
(§8) Therefore, cytotoxicity assays were run in parallel in SUDHL5 and SUDHL10 cells.
(§9) The different cell lines were plated in culture medium (RPMI 1640 [GIBCO #22400-089]supplemented with 10% Fetal Bovine Serum) at a density of 3,300 cells in 30 μL/well in a sterile, solid black, flat bottom, polystyrene, TC-treated 384-well microplate (Corning #3571) using Multidrop Combi Reagent Dispenser. As a control, medium without cells was also added to the plate. Cells were incubated in a humidified incubator at 37° C. overnight. […] Rim wells were excluded. The cells were incubated for 5 hours in a humidified incubator at 37° C. After this incubation, 30 μL of CellTiter-Glo® Luminescent Cell Viability reagent (Promega, G7573) was added to each well using the Multidrop Combi Reagent Dispenser, followed by 15 minutes incubation on a shaker at room temperature. Finally, luminescence was read at 0.1 ms, with a gain of 3000 using the PHERAstar FS microplate reader (BMG Labtech).
The test system of series [4] is SUDHL10. Kind of series: Antiproliferation assay 7, SUDHL10. The format is cell-based. The note with it: SUDHL10 cells, CellTiter-Glo, read-out: Antiproli SUDHL10 IC50 (median). An outline of the steps: as §1
Series [5] deals with SUDHL10. Kind of series: Induction of caspase-3/7 activity (Assay 4), SUDHL10. The class given is cell-based. To be noted: SUDHL10 cells. In outline: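 Luminescent Caspase-Glo 3/7 read-out after a 3 h, 37 °C compound exposure of the DLBCL line SUDHL10. Values are background-corrected using medium-only wells.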
The next series deals with A2058. Kind of series: Antiproliferation assay 7, A2058. The class given is cell-based. To be noted: A2058 cells, 72 hours, CellTiter-Glo, read-out: Antiproli A2058 IC50 median. As for the experimental part: (§2) Assessment of the Anti-Proliferative Effect of Compounds in Different Cell Lines
(§3) The impact of compounds on the proliferation of different cell lines was assessed using the CellTiter-Glo® Luminescent Cell Viability reagent from Promega (G7573).
(§4) In parallel, cells were plated in a reference (day 0) plate for time zero determination.
(§5) Rim wells were excluded. The cells were incubated for 72 hours in a humidified incubator at 37° C. The day 0 plate was measured by adding 30 μL/well of CTG solution (CellTiter-Glo® Luminescent Cell Viability reagent, Promega G7573) to time zero wells in the reference plate followed by a 10 minutes incubation and luminescence reading at 0.1 ms. using the PHERAstar FS microplate reader (BMG Labtech).
(§6) After 72 hours incubation, the treated plates were measured in the same way as the day 0 plate mentioned above.

Series [6] has as its system SUDHL5. Kind of series: Induction of caspase-3/7 activity (Assay 4), SUDHL5. To be noted: SUDHL5 cells. The format is cell-based. An outline of the steps: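 DLBCL cells treated with compounds for 3 hours at 37° C. Caspase-3/7 activity measured by Caspase-Glo 3/7 luminescence, with medium-only background subtracted.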
Series [7] has as its system SUDHL10. Kind of series: Induction of cytotoxicity (Assay 6), SUDHL10.
Procedure: as §7, §8, §9
The subject of a further series is KYSE-180. Kind of series: Antiproliferation assay 7, KYSE-180. The format is cell-based. The note with it: Homo sapiens; KYSE-180 cells, 72 hours, CellTiter-Glo; read-out: Antiproli KYSE-180 IC50 median. As for the experimental part:
as §2, §3, §4, §5, §6

The next series has as its system T47D. Kind of series: Antiproliferation assay 7, T47D. The format is cell-based. The note with it: T47D cells, 72 hours, CellTiter-Glo; read-out: Antiproli T47D IC50 median. As to the method: as §2, §3, §4, §5, §6
Another series has as its system NCI-H23. Kind of series: Antiproliferation assay 7, NCI-H23. The format is cell-based. To be noted: NCI-H23 cells, 72 hours, CellTiter-Glo, read-out: Antiproli NCI-H23 IC50 median. As for the experimental part:
as §2, §3, §4, §5, §6

The test system of another series is SNU-389. Kind of series: Antiproliferation assay 7, SNU-389. The format is cell-based. To be noted: SNU-389 cells, 72 hours, CellTiter-Glo; read-out: Antiproli SNU-389 IC50 median. As for the experimental part:
as §2, §3, §4, §5, §6

The test system of series [8] is SUDHL5.
Procedure: as §7, §8, §9
Series [9] relates to SUDHL10.
Procedure: as §7, §8, §9
Where [10] appears, read: Homo sapiens, SU-DHL10, 3 h, Caspase-Glo 3/7, read-out: Caspase SUDHL10 EC50 (median).
Setting [11] is: Homo sapiens, SU-DHL-5, 3 h, Caspase-Glo 3/7, read-out: Caspase SUDHL5 EC50 (median).
Where [12] appears, read: Homo sapiens, SU-DHL10, 5 h, read-out: Cytotox SUDHL10 IC50 (median), SUDHL10 cells, 5 hours, CellTiter-Glo.
Setting [13] is: read-out: Cytotox SUDHL5 IC50 (median), SUDHL5 cells, 5 hours, CellTiter-Glo.
[14] abbreviates: 3 hours, Caspase-Glo 3/7, read-out: Caspase SUDHL10 EC50 (median).
The mark [15] stands for this setting: 3 hours, Caspase-Glo 3/7, read-out: Caspase SUDHL5 EC50 (median).
Where [16] appears, read: read-out: Cytotox SUDHL10 IC50 (median), SUDHL10 cells, 5 hours, CellTiter-Glo.

Counter-ions that a name gives are not always drawn. Like-named read-outs stand apart in the source and are kept apart here.

As for `CCOC(=O)c1c(CCCOc2cccc3cc(F)ccc23)c2ccc(Cl)c3c2n1CCCCCN(C)c1nn(C)c(C)c1-3`, the ring closure, yield of all isomers in series [1] stood at 44.8%.

Turning to `Cc1c2c(nn1C)CN(C)CCCCn1c(C(=O)O)c(CCCOc3cccc4ccccc34)c3ccc(Cl)c-2c31` (single isomer, unassigned; enantiomer 1) [Example 12, (+)-4-chloro-2,3,14-trimethyl-7-[3-(naphthalen-1-yloxy)propyl]-10,11,12,13,14,15-hexahydro-2H-pyrazolo[3′,4′:8,9][1,6]diazacycloundecino[10,11,1-hi]indole-8-carboxylic acid-N-ethylethanamine Salt (Enantiomer 1)], the IC50 came to 170 nM with SUDHL5 [2] (Homo sapiens, SU-DHL-5, 72 h); 441 nM with MV-4-11 (Homo sapiens, MV4-11, 72 h); 335 nM in the series with AMO-1 (Homo sapiens, AMO1, 72 h); 1580 nM in the series with HMC-1-8 (72 h); 667 nM in the series with SK-BR-3 (Homo sapiens); 83 nM in the series on SUDHL5 [3] (Homo sapiens, SU-DHL-5, 5 h, read-out: Cytotox SUDHL5 IC50 (median), SUDHL5 cells, 5 hours, CellTiter-Glo). In addition, the IC50 with SUDHL10 [4] (Homo sapiens, SU-DHL10, 72 h) is 140 nM; with A2058 (Homo sapiens), 4830 nM; in the series on SUDHL10 [7] (setting [12]), 140 nM; in the series with KYSE-180 it was 3790 nM. The EC50 in the series with SUDHL10 [5] (setting [10]) came to 97 nM; with SUDHL5 [6] (setting [11]), 64 nM.

`Cc1c2c(nn1C)COCCCCn1c(C(=O)O)c(CCCOc3cccc4cc(F)ccc34)c3ccc(Cl)c-2c31` (single isomer, unassigned; enantiomer 1) [Example 15, (+)-4-chloro-7-{3-[(6-fluoronaphthalen-1-yl)oxy]propyl}-2,3-dimethyl-2,10,11,12,13,15-hexahydropyrazolo[4′,3′:9,10][1,6]oxazacycloundecino[8,7,6-hi]indole-8-carboxylic acid-N-ethylethanamine Salt (Enantiomer 1)]: the IC50 with SUDHL5 [2] (72 hours) is 190 nM; with T47D it was 11900 nM; with MV-4-11 (72 hours), 461 nM; in the series on AMO-1 (72 hours), 530 nM; with HMC-1-8 (72 hours), 1360 nM; in the series on SUDHL5 [3] (setting [13]), 140 nM. For the same molecule, the IC50 with SUDHL10 [4] (72 hours) is 200 nM; with A2058, 5860 nM; in the series on SUDHL10 [7] (setting [16]), 230 nM. For the same molecule, the EC50 on SUDHL10 [5] (setting [14]) and at SUDHL5 [6] (setting [15]) was 150 nM throughout.

With `Cc1nn(C)c2c1-c1c(Cl)ccc3c(CCCOc4cccc5ccccc45)c(C(=O)O)n(c13)CCCCOC2` (single isomer, unassigned; enantiomer 1) [Example 3, 4-chloro-1,3-dimethyl-7-[3-(naphthalen-1-yloxy)propyl]-1,10,11,12,13,15-hexahydropyrazolo[4′,3′:9,10][1,6]oxazacycloundecino[8,7,6-hi]indole-8-carboxylic Acid (Enantiomer 1)], the IC50 worked out at 6120 nM with NCI-H23 (Homo sapiens); 766 nM in the series on MV-4-11 (Homo sapiens, MV4-11, 72 h); 2510 nM with AMO-1 (Homo sapiens, AMO1, 72 h); 20600 nM in the series on SNU-389; 8280 nM in the series with HMC-1-8 (72 h); 7370 nM in the series on SK-BR-3 (Homo sapiens). The IC50 in the series on SUDHL10 [4] (72 hours) is 1700 nM; with A2058 (Homo sapiens), above 30000 nM.

Regarding `Cc1nn(C)c2c1-c1c(Cl)ccc3c(CCCOc4cccc5ccccc45)c(C(=O)O)n(c13)CCCCOC2` (racemic) [Example 2, rac-4-chloro-1,3-dimethyl-7-[3-(naphthalen-1-yloxy)propyl]-1,10,11,12,13,15-hexahydropyrazolo[4′,3′:9,10][1,6]oxazacycloundecino[8,7,6-hi]indole-8-carboxylic Acid], the IC50 with SUDHL5 [2] (Homo sapiens, SU-DHL-5, 72 h) worked out at 2800 nM; in the series with NCI-H23 (Homo sapiens) it was 14600 nM; in the series with MV-4-11 (Homo sapiens, MV4-11, 72 h), 1610 nM; in the series with AMO-1 (Homo sapiens, AMO1, 72 h), 4860 nM; in the series with HMC-1-8 (72 h) it was 15300 nM; with SK-BR-3 (Homo sapiens), 8270 nM. For the same molecule, the IC50 with SUDHL10 [4] (Homo sapiens, SU-DHL10, 72 h) is 2400 nM; with A2058 (Homo sapiens), above 30000 nM; in the series with SUDHL10 [7] (setting [12]) it was 3000 nM. Moreover, the EC50 turned out to be 3800 nM with SUDHL10 [5] (setting [10]) and 950 nM with SUDHL5 [6] (setting [11]).

For the molecule `Cc1c2c(nn1C)COCCCCn1c(C(=O)O)c(CCCOc3cccc4ccccc34)c3ccc(Cl)c-2c31` (racemic) [Example 25, (rac)-4-chloro-2,3-dimethyl-7-[3-(naphthalen-1-yloxy)propyl]-2,10,11,12,13,15-hexahydropyrazolo[4′,3′:9,10][1,6]oxazacycloundecino[8,7,6-hi]indole-8-carboxylic Acid], the IC50 in the series with SUDHL5 [2] (72 hours) amounted to 560 nM; with NCI-H23, 6010 nM; in the series with MV-4-11 (72 hours), 2780 nM; with AMO-1 (72 hours), 1310 nM; in the series on HMC-1-8 (72 hours) it was 6480 nM; in the series with SUDHL5 [8], 530 nM. Moreover, the results for the IC50 in the series on SK-BR-3, in the series on SUDHL10 [9] and with A2058 were 12900 nM, 930 nM and 21900 nM, respectively. The EC50 on SUDHL10 [5] (setting [14]) is 1200 nM; at SUDHL5 [6] (setting [15]), 390 nM.

On to `Cc1c2c(nn1C)COCCCCn1c(C(=O)O)c(CCCOc3cccc4ccccc34)c3ccc(Cl)c-2c31` (single isomer, unassigned; enantiomer 1) [Example 26, 4-chloro-2,3-dimethyl-7-[3-(naphthalen-1-yloxy)propyl]-2,10,11,12,13,15-hexahydropyrazolo-[4′,3′:9,10][1,6]oxazacycloundecino[8,7,6-hi]indole-8-carboxylic acid-N-ethylethanamine Salt (Enantiomer 1)], for which the IC50 in the series on SUDHL5 [2] (72 hours) is 580 nM; in the series on NCI-H23 it was 2320 nM; in the series on MV-4-11 (72 hours), 1810 nM; with AMO-1 (72 hours), 996 nM; with HMC-1-8 (72 hours), 2890 nM; in the series with SK-BR-3 it was 3300 nM. The IC50 turned out to be 460 nM with SUDHL5 [3] (setting [13]), 14900 nM with A2058 and 500 nM in the series on SUDHL10 [7] (setting [16]). Moreover, the values for the EC50 at SUDHL10 [5] (setting [14]) and on SUDHL5 [6] (setting [15]) were 410 nM and 350 nM, respectively.
